Source: the supplement of paper PMC10627819

Experiments:
[1] = tested on: S. aureus Newman; experiment: Bliss interaction score (quartile over a dose matrix) (fitness difference); higher = more antagonism (negative = synergy)
Procedure, shortened: (§1)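 Fitness was defined as normalised growth: OD595 at the start of stationary phase divided by the plate's robust no-drug mean and capped at 1. Single-drug fitness was inferred from combination measurements. The Bliss score is observed fitness minus the product of the single-drug values, summarised by quartiles across technical, biological and donor/recipient replicates.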

[2] = tested on: S. pneumoniae D39V; experiment: as above
Procedure, shortened: as §1

[3] = tested on: S. aureus DSM 20231; experiment: as above
Procedure, shortened: as §1

[4] = tested on: B. subtilis 168; experiment: as above
Procedure, shortened: as §1

[5] = tested on: S. pneumoniae D39V; experiment: fitness (endpoint OD595 vs no drug) (fraction); higher = more growth
Procedure, shortened: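 In 384-well plates at 37 °C, cultures began at OD595 0.01 in 30 µl, with 55 µl used for S. pneumoniae. OD595 readings every 30 min for 14 h were corrected by the first reading. Fitness divides the stationary-phase transition optical density by the robust mean of no-drug control wells. The result is capped at 1.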
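For Bliss interaction score (quartile over a dose matrix) in this document: first quartile when negative (synergy) and third quartile when positive (antagonism).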
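For fitness (endpoint OD595 vs no drug) in this document: OD595 on entry to stationary phase over no-drug wells; at most 1.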

CO/N=C(\C(=O)N[C@@H]1C(=O)N2C(C(=O)[O-])=C(C[N+]3(C)CCCC3)CS[C@H]12)c1csc(N)n1 [Cefepime] + CCC(C)C1C(=O)NC(=C)C(=O)NC(C(=O)NC(CSCC(C(=O)N1)NC(=O)/C(=C/C)/NC(=O)C(C(C)CC)N)C(=O)NC2C(SCC(NC(=O)CNC(=O)C3CCCN3C2=O)C(=O)NC(CCCCN)C(=O)NC4C(SCC(NC(=O)CNC(=O)C(NC(=O)C(NC(=O)C(NC(=O)CNC4=O)C)CC(C)C)CCSC)C(=O)NC(CC(=O)N)C(=O)NC(CCSC)C(=O)NC(CCCCN)C(=O)NC5C(SCC6C(=O)NC(C(=O)NC(CSC(C(C(=O)N6)NC(=O)C(NC5=O)C)C)C(=O)NC(CO)C(=O)NC(C(C)CC)C(=O)NC(CC7=CN=CN7)C(=O)NC(C(C)C)C(=O)NC(=C)C(=O)NC(CCCCN)C(=O)O)CC8=CN=CN8)C)C)C)CC(C)C [Nisin]
main component drawn
Settings | Bliss interaction score
[1] | -0.0777
[2] | -0.0526
[3] | -0.0745
[4] | -0.0465

[5], main component drawn
Settings | fitness
first compound 0.007 µg/mL, partner 1.6 µg/mL | 0.0039
first compound 0.007 µg/mL, partner 3.2 µg/mL | 0.0024
first compound 0.007 µg/mL, partner 6.4 µg/mL | 0.0023
first compound 0.0078 µg/mL, partner 0.4275 µg/mL | 0.996
first compound 0.0078 µg/mL, partner 0.855 µg/mL | ≥ 1
first compound 0.0078 µg/mL, partner 1.71 µg/mL | 0.189
first compound 0.014 µg/mL, partner 1.6 µg/mL | 0.0058
first compound 0.014 µg/mL, partner 3.2 µg/mL | 0.0156
first compound 0.014 µg/mL, partner 6.4 µg/mL | 0.0123
first compound 0.0155 µg/mL, partner 0.4275 µg/mL | 0.996
first compound 0.0155 µg/mL, partner 0.855 µg/mL | 0.974
first compound 0.0155 µg/mL, partner 1.71 µg/mL | 0.126
first compound 0.028 µg/mL, partner 1.6 µg/mL | 0.0484
first compound 0.028 µg/mL, partner 3.2 µg/mL | 0.0251
first compound 0.028 µg/mL, partner 6.4 µg/mL | 0.0152
first compound 0.031 µg/mL, partner 1.71 µg/mL | 0.103

CN(C)C(=O)C(CCN1CCC(O)(c2ccc(Cl)cc2)CC1)(c1ccccc1)c1ccccc1 [Loperamide] + Clc1ccc(COC(Cn2ccnc2)c2ccc(Cl)cc2Cl)c(Cl)c1 [Miconazole]
Settings | Bliss interaction score
[1] | -0.158
[2] | -0.0772
[3] | 0.0862
[4] | -0.136

fitness, [5]
Settings | partner 1.073 µg/mL | partner 1.25 µg/mL | partner 2.145 µg/mL | partner 2.5 µg/mL | partner 4.29 µg/mL | partner 5 µg/mL
first compound 17.14 µg/mL | – | 0.963 | – | 0.954 | – | 0.933
first compound 20 µg/mL | ≥ 1 | – | ≥ 1 | – | 0.926 | –
first compound 34.28 µg/mL | – | 0.884 | – | 0.907 | – | 0.925
first compound 40 µg/mL | ≥ 1 | – | 0.955 | – | 0.731 | –

[5], first compound 68.57 µg/mL, one replicate
Settings | fitness
partner 1.25 µg/mL | 0.857
partner 2.5 µg/mL | 0.85
partner 5 µg/mL | 0.923

C[C@H]1COc2c(N3CCN(C)CC3)c(F)cc3c(=O)c(C(=O)O)cn1c23 [Levofloxacin] + Cn1nnc(-c2ccc(-c3ccc(N4C[C@H](CO)OC4=O)cc3F)cn2)n1 [Tedizolid]
Settings | Bliss interaction score
[1] | 0.057
[2] | -0.126
[3] | 0.0821
[4] | 0.0224

fitness, [5]
Settings | first compound 0.1725 µg/mL | first compound 0.2 µg/mL | first compound 0.345 µg/mL | first compound 0.4 µg/mL | first compound 0.69 µg/mL | first compound 0.8 µg/mL
partner 0.03125 µg/mL | – | 0.921 | – | 0.855 | – | 0.629
partner 0.0625 µg/mL | – | 0.94 | – | 0.878 | – | 0.731
partner 0.125 µg/mL | 0.758 | 0.768 | 0.703 | 0.731 | 0.433 | 0.608
partner 0.25 µg/mL | 0.826 | – | 0.757 | – | 0.401 | –
partner 0.5 µg/mL | 0.243 | – | 0.203 | – | 0.189 | –

CN(C)C(=O)C(CCN1CCC(O)(c2ccc(Cl)cc2)CC1)(c1ccccc1)c1ccccc1 [Loperamide] + O=C1CN(/N=C/c2ccc([N+](=O)[O-])o2)C(=O)N1 [Nitrofurantoin]
Settings | Bliss interaction score
[1] | 0.045
[2] | 0.106
[3] | 0.0206
[4] | 0.0384

[5]
Settings | fitness
first compound 17.14 µg/mL, partner 2 µg/mL | 0.906
first compound 17.14 µg/mL, partner 4 µg/mL | 0.924
first compound 17.14 µg/mL, partner 8 µg/mL | 0.856
first compound 20 µg/mL, partner 1.285 µg/mL | ≥ 1
first compound 20 µg/mL, partner 2.57 µg/mL | 0.98
first compound 34.28 µg/mL, partner 2 µg/mL | 0.904
first compound 34.28 µg/mL, partner 4 µg/mL | 0.941
first compound 34.28 µg/mL, partner 8 µg/mL | 0.883
first compound 40 µg/mL, partner 1.285 µg/mL | ≥ 1
first compound 40 µg/mL, partner 2.57 µg/mL | 0.981
first compound 80 µg/mL, partner 1.285 µg/mL | 0.805
first compound 80 µg/mL, partner 2.57 µg/mL | 0.821

[5], one replicate
Settings | fitness
first compound 20 µg/mL, partner 5.14 µg/mL | ≥ 1
first compound 40 µg/mL, partner 5.14 µg/mL | ≥ 1
first compound 68.57 µg/mL, partner 2 µg/mL | 0.901
first compound 68.57 µg/mL, partner 4 µg/mL | 0.914
first compound 68.57 µg/mL, partner 8 µg/mL | 0.851
first compound 80 µg/mL, partner 5.14 µg/mL | 0.806

C[C@H]1COc2c(N3CCN(C)CC3)c(F)cc3c(=O)c(C(=O)O)cn1c23 [Levofloxacin] + CN[C@H](CC(C)C)C(=O)N[C@H]1C(=O)N[C@@H](CC(N)=O)C(=O)N[C@H]2C(=O)N[C@H]3C(=O)N[C@H](C(=O)N[C@H](C(=O)O)c4cc(O)cc(O)c4-c4cc3ccc4O)[C@H](O)c3ccc(c(Cl)c3)Oc3cc2cc(c3O[C@@H]2O[C@H](CO)[C@@H](O)[C@H](O)[C@H]2O[C@H]2C[C@](C)(N)[C@H](O)[C@H](C)O2)Oc2ccc(cc2Cl)[C@H]1O [Vancomycin]
Settings | Bliss interaction score
[1] | -0.0425
[2] | -0.1
[3] | -0.0494
[4] | 0.0448

fitness, [5]
Settings | first compound 0.1725 µg/mL | first compound 0.2 µg/mL | first compound 0.345 µg/mL | first compound 0.4 µg/mL | first compound 0.69 µg/mL | first compound 0.8 µg/mL
partner 0.03125 µg/mL | – | 0.931 | – | 0.834 | – | 0.365
partner 0.0625 µg/mL | – | 0.893 | – | 0.812 | – | 0.436
partner 0.125 µg/mL | 0.857 | 0.704 | 0.818 | 0.605 | – | 0.292
partner 0.25 µg/mL | – | – | – | – | 0.213 | –
partner 0.5 µg/mL | 0.0371 | – | 0.0522 | – | 0.0787 | –
